Measurements as given in ChEMBL document CHEMBL1201862, “PubChem BioAssay data set” (2004).
Values joined by “and” are separate entries in the source; they are usually repeats but may differ in a detail not shown here. Identical values can stand only once. Active and inactive are the calls of the source.

Legend:
[1] = target: T1, High affinity choline transporter 1 (Homo sapiens, UniProt Q9GZV3); test: CHT inhibitors, dose response, cell-based, 10-point CRC, membrane potential dye (AID 588401); type: functional;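 also: membrane potential dye fluorescence of choline-evoked depolarization via CHT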
T1 sequence (Q9GZV3 whole entry): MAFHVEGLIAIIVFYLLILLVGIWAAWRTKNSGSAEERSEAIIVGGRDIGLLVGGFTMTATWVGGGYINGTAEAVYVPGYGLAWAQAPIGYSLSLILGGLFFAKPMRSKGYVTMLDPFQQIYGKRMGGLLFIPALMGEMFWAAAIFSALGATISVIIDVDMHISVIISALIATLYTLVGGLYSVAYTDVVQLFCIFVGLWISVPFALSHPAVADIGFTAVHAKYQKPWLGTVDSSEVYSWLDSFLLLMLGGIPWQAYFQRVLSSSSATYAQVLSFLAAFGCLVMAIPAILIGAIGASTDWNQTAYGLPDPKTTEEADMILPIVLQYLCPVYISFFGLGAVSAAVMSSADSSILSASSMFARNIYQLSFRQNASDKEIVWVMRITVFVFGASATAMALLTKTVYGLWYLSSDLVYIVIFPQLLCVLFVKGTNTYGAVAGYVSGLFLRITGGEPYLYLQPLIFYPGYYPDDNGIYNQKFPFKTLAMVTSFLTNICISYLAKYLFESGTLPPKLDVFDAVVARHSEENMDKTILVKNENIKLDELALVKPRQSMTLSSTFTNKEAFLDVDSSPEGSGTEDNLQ

[2] = tested on: H4; test: Luminescence Cell-Based Dose Response HTS to Identify Activators of 5'UTR Stem-Loop Driven Prion Protein mRNA Translation in H4 Neuroglioblastoma Cells. [Related pubchem assays: 1829 (Project Summary), 1814 (Primary HTS)]; type: functional; settings: Homo sapiens
[3] = target: T1, High affinity choline transporter 1; test: CHT inhibitors, dose response, cell-based, 5-point CRC, membrane potential dye (AID 504840); type: functional
[4] = Luminescence Cell-Based Dose Confirmation HTS to Identify Activators of 5'UTR Stem-Loop Driven Alpha-Synuclein mRNA Translation in H4 Neuroglioblastoma Cells. [Related pubchem assays: 1829 (Project Summary), 1814 (Primary HTS)]; type: functional
[5] = Luminescence Cell-Based Dose Response HTS to Identify Activators of Luciferase Translation or Activity in H4 […] Cells. [Related pubchem assays: 1829 (Project Summary), 1814 (Primary HTS)]; type: functional
[6] = target: T2, Heat shock factor protein 1 (Mus musculus, UniProt P38532); test: inhibition of MG132-induced HSE-luciferase signal, confirmation, cell-based, NIH3T3, luminescence, dose retest (AID 2382); type: functional;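 also: NIH3T3 fibroblasts with HSF1-driven luciferase reporter stressed by proteasome inhibitor MG132; luminescence from HSF1-driven luciferase expression after 8 hours of MG132 stress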
T2 sequence (P38532 whole entry): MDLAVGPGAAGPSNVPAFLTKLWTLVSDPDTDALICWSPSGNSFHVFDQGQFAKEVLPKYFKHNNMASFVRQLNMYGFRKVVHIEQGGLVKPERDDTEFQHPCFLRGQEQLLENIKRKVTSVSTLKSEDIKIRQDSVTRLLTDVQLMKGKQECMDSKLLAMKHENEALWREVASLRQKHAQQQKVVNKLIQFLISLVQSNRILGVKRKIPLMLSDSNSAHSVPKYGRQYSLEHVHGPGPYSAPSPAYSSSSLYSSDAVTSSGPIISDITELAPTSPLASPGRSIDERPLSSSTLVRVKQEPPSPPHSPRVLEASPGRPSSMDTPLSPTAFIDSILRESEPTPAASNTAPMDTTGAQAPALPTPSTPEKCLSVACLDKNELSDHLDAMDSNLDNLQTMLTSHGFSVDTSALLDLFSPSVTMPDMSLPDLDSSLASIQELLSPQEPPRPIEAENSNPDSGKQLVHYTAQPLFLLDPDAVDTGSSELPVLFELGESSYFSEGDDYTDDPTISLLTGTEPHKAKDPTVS

[7] = target: T3, DNA dC->dU-editing enzyme APOBEC-3A (Homo sapiens, UniProt P31941); test: SAR analysis of small molecule inhibitors of APOBEC3A DNA Deaminase via a fluorescence-based single-stranded DNA deaminase assay - Set 2.; type: functional; settings: read-out: IC50_Mean
[8] = target: T3, DNA dC->dU-editing enzyme APOBEC-3A; test: SAR analysis of small molecule inhibitors of APOBEC3A DNA Deaminase via a fluorescence-based single-stranded DNA deaminase assay.; type: functional; settings: read-out: IC50_Mean
[9] = target: T4, DNA dC->dU-editing enzyme APOBEC-3G (Homo sapiens, UniProt Q9HC16); test: APOBEC3G deaminase inhibitors, SAR follow-up, biochemical, fluorescence, single-stranded DNA substrate (AID 602136); type: functional; settings: read-out: IC50_Mean
[10] = target: T4, DNA dC->dU-editing enzyme APOBEC-3G; test: SAR analysis of small molecule inhibitors of APOBEC3G DNA Deaminase via a fluorescence-based single-stranded DNA deaminase assay - Set 2.; type: functional; settings: read-out: IC50_Mean
[11] = target: T4, DNA dC->dU-editing enzyme APOBEC-3G; test: Dose Response confirmation of small molecule APOBEC3G DNA Deaminase Inhibitors via a fluorescence-based single-stranded DNA deaminase assay. [Related pubchem assays (depositor defined):AID493012, AID493028]; type: functional
[12] = target: T3, DNA dC->dU-editing enzyme APOBEC-3A; test: APOBEC3A DNA deaminase inhibitors, dose response, biochemical (AID 504722); type: functional
[13] = target: Melanocortin receptor 4 (Homo sapiens, UniProt P32245); type: functional, cell-based;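 also: Cell-based assay with luminescence read-out, confirmatory dose-response testing for agonist activity of biased ligands at MC4R; human U2OS cells with tagged receptor and beta-arrestin; potency of agonists that increase receptor coupling to beta-arrestin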
[14] = target: T4, DNA dC->dU-editing enzyme APOBEC-3G; type: functional
[15] = target: T3, DNA dC->dU-editing enzyme APOBEC-3A; test: Dose Response confirmation of small molecule APOBEC3A DNA Deaminase Inhibitors via a fluorescence-based single-stranded DNA deaminase assay. [Related pubchem assays (depositor defined):AID493011, AID493024]; type: functional
[16] = target: T5, Carboxy-terminal domain RNA polymerase II polypeptide A small phosphatase 1 (Homo sapiens, UniProt Q9GZU7); test: inhibitors of CTDSP1, concentration-response testing, biochemical assay, absorbance-based, actives from ultra-high-throughput screening (AID 540297); type: functional
T5 sequence (Q9GZU7 whole entry): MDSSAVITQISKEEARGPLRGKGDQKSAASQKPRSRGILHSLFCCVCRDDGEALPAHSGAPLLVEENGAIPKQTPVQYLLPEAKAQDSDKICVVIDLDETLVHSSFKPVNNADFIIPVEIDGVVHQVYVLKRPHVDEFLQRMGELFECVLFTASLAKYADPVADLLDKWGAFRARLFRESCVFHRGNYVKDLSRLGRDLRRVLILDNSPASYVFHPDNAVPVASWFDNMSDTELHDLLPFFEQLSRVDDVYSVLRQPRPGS

[17] = target: DNA (cytosine-5)-methyltransferase 1 (Homo sapiens, UniProt P26358); test: DNMT1 methyltransferase inhibitors, confirmation, biochemical, fluorescent molecular beacon (AID 602386); type: functional
[18] = target: T6, Rac GTPase-activating protein 1 (Homo sapiens, UniProt Q9H0H5); test: MgcRacGAP GTPase-activating activity inhibitors, confirmation, biochemical, ADP Hunter fluorescence, primary and confirmatory (AID 624330); type: functional
T6 sequence (Q9H0H5 whole entry): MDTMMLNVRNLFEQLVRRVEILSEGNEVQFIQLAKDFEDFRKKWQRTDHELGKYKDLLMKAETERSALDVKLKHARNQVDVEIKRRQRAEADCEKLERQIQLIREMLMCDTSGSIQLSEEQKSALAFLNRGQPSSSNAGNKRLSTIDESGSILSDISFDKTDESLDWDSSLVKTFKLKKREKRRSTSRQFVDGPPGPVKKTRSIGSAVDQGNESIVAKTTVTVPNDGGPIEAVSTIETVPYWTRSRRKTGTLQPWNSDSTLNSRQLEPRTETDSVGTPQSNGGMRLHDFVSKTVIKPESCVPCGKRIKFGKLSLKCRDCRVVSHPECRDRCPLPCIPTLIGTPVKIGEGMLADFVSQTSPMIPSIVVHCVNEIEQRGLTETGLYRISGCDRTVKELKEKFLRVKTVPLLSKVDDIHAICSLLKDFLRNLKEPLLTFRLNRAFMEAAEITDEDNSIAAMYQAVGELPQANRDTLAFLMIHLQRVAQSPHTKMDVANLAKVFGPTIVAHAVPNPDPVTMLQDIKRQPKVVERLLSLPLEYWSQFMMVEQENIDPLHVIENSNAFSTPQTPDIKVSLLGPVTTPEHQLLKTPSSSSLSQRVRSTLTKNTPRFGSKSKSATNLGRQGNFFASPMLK

[19] = target: T7, Apoptotic protease-activating factor 1 (Homo sapiens, UniProt O14727); test: SAR analysis of small molecule Activators of Apaf-1 in a Fluorescent assay.; type: functional; settings: read-out: EC50_Mean;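 also: caspase-3 cleavage of fluorogenic Rh110 DEVD substrate downstream of apoptosome activation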
T7 sequence (O14727 whole entry): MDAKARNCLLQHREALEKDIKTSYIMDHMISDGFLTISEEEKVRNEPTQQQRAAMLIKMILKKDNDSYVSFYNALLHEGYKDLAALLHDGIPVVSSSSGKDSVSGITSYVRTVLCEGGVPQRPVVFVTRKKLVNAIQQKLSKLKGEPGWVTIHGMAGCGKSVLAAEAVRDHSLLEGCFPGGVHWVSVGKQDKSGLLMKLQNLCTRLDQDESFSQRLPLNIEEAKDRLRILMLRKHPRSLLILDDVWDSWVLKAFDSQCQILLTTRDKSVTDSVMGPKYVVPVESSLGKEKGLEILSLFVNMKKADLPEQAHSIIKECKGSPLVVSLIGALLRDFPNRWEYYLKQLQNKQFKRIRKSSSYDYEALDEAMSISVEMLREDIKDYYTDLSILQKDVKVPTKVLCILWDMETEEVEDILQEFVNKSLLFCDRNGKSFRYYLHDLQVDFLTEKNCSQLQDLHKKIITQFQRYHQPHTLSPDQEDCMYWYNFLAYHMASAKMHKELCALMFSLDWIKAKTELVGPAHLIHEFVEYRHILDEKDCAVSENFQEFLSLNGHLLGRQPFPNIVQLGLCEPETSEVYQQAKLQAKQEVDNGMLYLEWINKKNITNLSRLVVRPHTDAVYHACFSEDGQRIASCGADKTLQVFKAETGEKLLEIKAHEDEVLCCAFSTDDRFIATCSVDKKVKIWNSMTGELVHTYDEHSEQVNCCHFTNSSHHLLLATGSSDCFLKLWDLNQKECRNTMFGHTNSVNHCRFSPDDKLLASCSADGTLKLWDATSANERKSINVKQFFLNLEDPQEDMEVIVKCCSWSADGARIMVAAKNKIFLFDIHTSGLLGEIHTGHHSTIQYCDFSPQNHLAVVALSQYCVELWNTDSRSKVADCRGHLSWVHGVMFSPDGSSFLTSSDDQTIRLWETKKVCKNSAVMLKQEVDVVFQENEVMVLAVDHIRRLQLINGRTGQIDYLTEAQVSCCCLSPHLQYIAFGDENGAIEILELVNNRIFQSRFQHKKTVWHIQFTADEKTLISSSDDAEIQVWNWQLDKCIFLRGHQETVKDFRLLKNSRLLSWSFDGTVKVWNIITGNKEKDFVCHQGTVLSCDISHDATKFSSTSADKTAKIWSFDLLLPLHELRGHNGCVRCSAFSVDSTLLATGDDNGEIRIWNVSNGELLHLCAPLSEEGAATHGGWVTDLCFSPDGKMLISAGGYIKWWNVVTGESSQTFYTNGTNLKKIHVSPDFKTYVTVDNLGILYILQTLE

T4 sequence (Q9HC16 whole entry): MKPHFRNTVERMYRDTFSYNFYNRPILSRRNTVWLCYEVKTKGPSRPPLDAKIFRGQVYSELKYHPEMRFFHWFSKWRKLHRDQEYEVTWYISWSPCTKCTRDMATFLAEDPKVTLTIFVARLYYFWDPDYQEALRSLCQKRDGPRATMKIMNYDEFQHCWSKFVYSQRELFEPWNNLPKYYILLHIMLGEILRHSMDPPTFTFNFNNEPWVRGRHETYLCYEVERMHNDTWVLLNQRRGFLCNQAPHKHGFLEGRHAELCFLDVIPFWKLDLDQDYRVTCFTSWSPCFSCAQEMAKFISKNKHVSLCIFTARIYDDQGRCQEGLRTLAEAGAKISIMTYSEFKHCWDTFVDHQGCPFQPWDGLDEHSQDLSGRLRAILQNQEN
T3 sequence (P31941 whole entry): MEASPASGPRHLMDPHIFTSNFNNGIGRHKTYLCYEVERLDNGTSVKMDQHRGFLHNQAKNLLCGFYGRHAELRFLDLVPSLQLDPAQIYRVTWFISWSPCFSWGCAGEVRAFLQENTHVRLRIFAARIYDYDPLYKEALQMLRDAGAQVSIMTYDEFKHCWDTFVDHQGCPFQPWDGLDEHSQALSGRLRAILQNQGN
DNA (cytosine-5)-methyltransferase 1, sequence (P26358 whole entry): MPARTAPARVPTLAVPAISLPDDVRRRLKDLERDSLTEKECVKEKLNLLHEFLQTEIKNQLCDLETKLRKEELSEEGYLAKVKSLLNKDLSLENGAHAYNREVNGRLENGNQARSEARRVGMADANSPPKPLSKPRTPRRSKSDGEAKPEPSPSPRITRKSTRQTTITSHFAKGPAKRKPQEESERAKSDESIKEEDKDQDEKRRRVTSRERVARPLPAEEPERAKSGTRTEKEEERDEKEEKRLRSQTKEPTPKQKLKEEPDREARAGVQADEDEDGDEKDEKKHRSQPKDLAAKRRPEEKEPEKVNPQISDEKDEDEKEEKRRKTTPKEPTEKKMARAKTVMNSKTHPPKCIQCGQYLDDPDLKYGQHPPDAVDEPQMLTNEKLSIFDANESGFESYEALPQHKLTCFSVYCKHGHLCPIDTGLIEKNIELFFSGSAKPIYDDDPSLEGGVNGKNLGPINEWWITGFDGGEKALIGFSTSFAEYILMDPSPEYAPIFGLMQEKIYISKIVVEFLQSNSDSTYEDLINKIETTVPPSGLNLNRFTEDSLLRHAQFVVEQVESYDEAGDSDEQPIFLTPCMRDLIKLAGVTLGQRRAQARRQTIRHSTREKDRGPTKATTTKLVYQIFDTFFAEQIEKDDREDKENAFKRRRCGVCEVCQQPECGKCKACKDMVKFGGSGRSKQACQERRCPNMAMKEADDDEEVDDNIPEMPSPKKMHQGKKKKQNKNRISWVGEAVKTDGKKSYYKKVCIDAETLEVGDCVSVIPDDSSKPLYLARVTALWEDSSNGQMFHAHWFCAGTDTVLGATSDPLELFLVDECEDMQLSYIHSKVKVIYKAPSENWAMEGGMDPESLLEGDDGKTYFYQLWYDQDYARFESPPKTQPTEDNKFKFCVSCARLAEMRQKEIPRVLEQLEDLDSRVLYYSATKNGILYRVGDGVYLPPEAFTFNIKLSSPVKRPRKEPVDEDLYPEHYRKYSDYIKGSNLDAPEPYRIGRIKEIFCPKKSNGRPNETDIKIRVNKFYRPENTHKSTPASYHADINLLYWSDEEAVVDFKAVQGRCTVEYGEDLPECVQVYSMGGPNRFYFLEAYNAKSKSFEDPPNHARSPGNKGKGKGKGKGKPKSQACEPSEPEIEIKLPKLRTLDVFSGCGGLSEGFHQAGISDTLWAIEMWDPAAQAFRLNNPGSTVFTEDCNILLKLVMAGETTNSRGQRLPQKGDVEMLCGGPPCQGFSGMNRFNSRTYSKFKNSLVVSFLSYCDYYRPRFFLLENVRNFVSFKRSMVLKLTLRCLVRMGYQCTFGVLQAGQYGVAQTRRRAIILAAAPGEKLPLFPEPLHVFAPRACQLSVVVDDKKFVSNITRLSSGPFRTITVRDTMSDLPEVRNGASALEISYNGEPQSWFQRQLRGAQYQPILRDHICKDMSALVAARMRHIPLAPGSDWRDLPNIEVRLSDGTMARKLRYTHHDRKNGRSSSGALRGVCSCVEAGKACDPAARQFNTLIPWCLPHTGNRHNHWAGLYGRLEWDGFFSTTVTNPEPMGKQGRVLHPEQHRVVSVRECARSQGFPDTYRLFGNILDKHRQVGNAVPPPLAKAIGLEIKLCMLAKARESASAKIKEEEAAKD
Melanocortin receptor 4, sequence (P32245 whole entry): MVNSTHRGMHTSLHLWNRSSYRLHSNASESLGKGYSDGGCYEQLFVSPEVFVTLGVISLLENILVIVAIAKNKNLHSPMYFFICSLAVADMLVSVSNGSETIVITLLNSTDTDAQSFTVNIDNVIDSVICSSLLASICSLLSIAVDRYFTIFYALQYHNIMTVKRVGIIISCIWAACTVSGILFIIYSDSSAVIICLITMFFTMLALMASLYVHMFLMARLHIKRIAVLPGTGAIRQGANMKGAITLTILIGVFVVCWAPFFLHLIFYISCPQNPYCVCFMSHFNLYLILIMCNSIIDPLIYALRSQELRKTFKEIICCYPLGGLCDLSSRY

O=C1NN(c2ccccc2)C(=O)/C1=C/c1coc2ccccc2c1=O
IC50 [1]: 1.27 µM (active) | EC50 [2]: 13.4 µM (active) | IC50 [3]: 5.3 µM (active) | EC50 [4]: 14.5 µM (active) | EC50 [5]: 44.7 µM (active)

Nn1c(-c2cccc(Br)c2)n[nH]c1=S
EC50 [6]: 108 µM (active) | IC50 [7]: > 99 µM (inactive) | IC50 [8]: > 99 µM (inactive) | IC50 [9]: 0.55 µM (active) | IC50 [10]: 539 nM (active) | IC50 [11]: 1.45 µM (active) | IC50 [12]: > 100 µM (inactive)

Cc1ccc(NC(=O)c2ccccc2OCC(=O)c2ccc(F)cc2)cc1
EC50 [13]: > 89.2 µM (inactive)

CCn1ncc(-c2ccnc3cc(C(=O)O)nn23)c1C
IC50 [7]: 16.4 µM (inactive) and 24.7 µM (inactive) | IC50 [8]: 10.7 µM (inactive) | IC50 [14]: > 100 µM (inactive) | IC50 [9]: > 99 µM (inactive) | IC50 [10]: 93 µM (inactive) and 69.6 µM (inactive) | IC50 [15]: 3.82 µM (active)

C=CCNc1nc(SC)nc2ccsc12
IC50 [1]: 0.891 µM (active) | IC50 [3]: 1.73 µM (active)

CCc1ccc(/C(C)=N/NC(=O)CNC(=O)/C=C/c2ccco2)cc1
IC50 [16]: 0.844 µM (active) | IC50 [17]: 6.95 µM (active) | IC50 [18]: 106 µM (active)

COc1ccc(OC)c(NC(=O)CC(C)S(=O)(=O)c2ccc3c(c2)CCN3C(C)=O)c1 (stereo unspecified)
EC50 [19]: > 100 µM (inactive)

COC(=O)[C@@H]1COC(c2ccccc2C(F)(F)F)=N1
EC50 [19]: > 100 µM (inactive)
